US8937091B2 (Japan Science and Technology Agency, priority 2009, dated 2015)

Assays:
[1] = system: SOCE (store operated calcium entry) in CHO cells; experiment: Assay of SOCE (store operated calcium entry)-inhibiting action; format: cell-based, Chinese hamster; conditions: CHO cells, thapsigargin; for inhibition at 10 µM / inhibition at 30 µM / inhibition at 100 µM: Cricetulus griseus, CHO, read-out: SOCE level (percentage of inhibition)
In short: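 CHO cells in calcium-free BSS received compound, then 1 μM thapsigargin 2 min later to deplete stores; after 9 min, 2 mM calcium chloride (final) added. Percent inhibition of the rise in intracellular calcium determined at various compound concentrations.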

[2] = system: IICR (IP3 induced calcium release) in CHO cells; experiment: Assay of IICR (IP3 induced calcium release)-inhibiting action; format: cell-based, Chinese hamster; conditions: CHO cells, 10 μM ATP; for inhibition at 10 µM / inhibition at 30 µM / inhibition at 100 µM: Cricetulus griseus, CHO, read-out: IICR level (percentage of inhibition)
In short: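 Inhibition (%) of the intracellular calcium increase triggered by 10 μM ATP, measured in CHO cells in BSS with calcium. Compound given 1 min after the buffer exchange and 2 min before ATP; values reported per compound concentration.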

SMILES | inhibition at 10 µM ([1]; test compound 10 μmol) [%] | inhibition at 30 µM ([1]; test compound 30 μmol) [%] | inhibition at 100 µM ([1]; test compound 100 μmol) [%] | inhibition at 10 µM ([2]; test compound 10 μmol) [%] | inhibition at 30 µM ([2]; test compound 30 μmol) [%] | inhibition at 100 µM ([2]; test compound 100 μmol) [%] | SOCE level (percentage of inhibition) ([1]; test compound 10 μmol) [%] | SOCE level (percentage of inhibition) ([1]; test compound 30 μmol) [%] | SOCE level (percentage of inhibition) ([1]; test compound 100 μmol) [%] | IICR level (percentage of inhibition) ([2]; test compound 10 μmol) [%] | IICR level (percentage of inhibition) ([2]; test compound 30 μmol) [%] | IICR level (percentage of inhibition) ([2]; test compound 100 μmol) [%]
CC(=O)CCN(CCO)C(C)C [Example 197, 2-(N-hydroxyethylisopropyl)aminoethylmethylketone] | 0 | 0 | 0 | 0 | 0 | 0 |  |  |  |  |  | 
CC(=O)CCN(Cc1ccccc1)C(C)C [Example 198, 2-(N-benzylisopropyl)aminoethylmethylketone] | 0 | 0 | 0 | 0 | 0 | 0 |  |  |  |  |  | 
CC(C)N(CCO)CCC(=O)n1ccnc1 [Example 199, 2-(N-isopropylhydroxyethyl)aminoethyl-1-imidazolylketone] | 0 | 0 | 0 | 10 | 20 | 0 |  |  |  |  |  | 
CC(C)N(CCC(=O)N1CCCCCC1=O)Cc1ccccc1 [Example 200, 3-(N-benzylisopropyl)aminopropionylcaprolactam] | 0 | 0 | 10 | 0 | 0 | 20 |  |  |  |  |  | 
CC(C)N(CCO)CCC(=O)N1CCCCCC1=O [Example 201, 3-(N-hydroxyethylisopropyl)aminopropionylcaprolactam] | 0 | 0 | 0 | 0 | 0 | 0 |  |  |  |  |  | 
CC(C)N(CCC(=O)c1cc(Cl)sc1Cl)Cc1ccccc1 [Example 202, 2-(N-isopropylbenzyl)aminomethyl-3-(2,5-dichlorothiophenyl)ketone] | 0 | 20 | 50 | 50 | 80 | 100 |  |  |  |  |  | 
CC(C)N(CCO)CCC(=O)c1cc(Cl)sc1Cl [Example 203, 2-(N-isopropyl-2-hydroxyethyl)aminomethyl-3-(2,5-dichlorothiophenyl)ketone] | 50 | 20 | 10 | 40 | 90 | 100 |  |  |  |  |  | 
O=C(CCN(CCO)Cc1ccccc1)c1cc(Cl)sc1Cl [Example 204, 2-(N-2-hydroxyethylbenzyl)aminomethyl-3-(2,5-dichlorothiophenyl)ketone] | 0 | 0 | 50 | 0 | 40 | 70 |  |  |  |  |  | 
CC(C)N(CCO)CCC(=O)c1ccc2ccccc2c1 [Example 205, 2-(N-hydroxyethylisopropyl)aminoethyl-2-naphthylketone] | 0 | 0 | 0 | 0 | 0 | 0 |  |  |  |  |  | 
CC(C)N(CCO)CC(=O)c1ccccc1 [Example 206, 2-(N-hydroxyethylisopropyl)aminomethylphenylketone] | 0 | 0 | 0 | 0 | 0 | 40 |  |  |  |  |  | 
CC(C)N(CCO)CCCC(=O)c1ccccc1 [Example 207, 3-(N-hydroxyethylisopropyl)aminopropylphenylketone] |  |  |  |  |  |  | 0 | 0 | 30 | 20 | 20 | 20
CN(CCO)CCC(=O)c1cnccn1 [Example 208, 2-(N-hydroxyethylmethyl)aminoethyl-2-pyrazylketone] | 0 | 10 | 20 | 20 | 30 | 30 |  |  |  |  |  | 
CCN(CCC(=O)c1ccncc1)Cc1ccccc1 [Example 209, 2-(N-ethylbenzyl)aminoethyl-4-pyridylketone] | 0 | 20 | 60 | 20 | 20 | 50 |  |  |  |  |  | 
CC(C)(C)N(CCC(=O)c1ccncc1)Cc1ccccc1 [Example 210, 2-(N-t-butylbenzyl)aminoethyl-4-pyridylketone] | 0 | 10 | 30 | 0 | 20 | 0 |  |  |  |  |  | 
O=C(CCN1CCN(c2ccco2)CC1)c1ccc(F)cc1 [Example 211, 2-(N-2-furylpiperadino)ethyl-4-fluorophenylketone] | 0 | 10 | 30 | 30 | 20 | 20 |  |  |  |  |  | 
CC(C)N(CCC(=O)c1ccc(F)cc1)Cc1ccccc1 [Example 212, 2-(N-isopropylbenzyl)aminoethyl-4-fluorophenylketone] | 0 | 30 | 50 | 20 | 80 | 30 |  |  |  |  |  | 
CC(C)(C)N(CCC(=O)c1cnccn1)Cc1ccccc1 [Example 213, 2-(N-2-benzyl-t-butyl)aminoethyl-2-pyrazylketone] | 0 | 0 | 10 | 20 | 80 | 90 |  |  |  |  |  | 
CC(C)(C)N(CCO)CCC(=O)c1cnccn1 [Example 214, 2-(N-2-hydroxyethyl-t-butyl)aminoethyl-2-pyrazylketone] | 10 | 0 | 0 | 0 | 0 | 0 |  |  |  |  |  | 
CN(CCC(=O)c1cnccn1)Cc1ccccc1 [Example 215, 2-(N-benzylmethyl)aminoethyl-2-pyrazylketone] | 0 | 0 | 0 | 0 | 0 | 50 |  |  |  |  |  | 
O=C(CCNCCCCNCCCNCCC(=O)c1ccncc1)c1ccncc1 [Example 216, N,N-bis(4-pyrizoylethyl)spermidine] | 0 | 10 | 10 | 0 | 0 | 30 |  |  |  |  |  | 
O=C(CCN1CCCCC1CO)c1ccncc1 (stereo not drawn) [Example 217] | 10 | 0 | 20 | 0 | 20 | 50 |  |  |  |  |  | 
CCN(CCC(=O)c1ccc2c(c1)Cc1ccccc1-2)Cc1ccccc1 [Example 218, 2-(N-benzylethyl)aminoethyl-2-florenylketone] | 20 | 60 | 70 | 10 | 40 | 70 |  |  |  |  |  | 
